The source made the active and inactive calls.
Tests used:
[1] = biological target: T1, Ephrin type-A receptor 1 (Homo sapiens) (UniProt P21709); test: Inhibition of human wild type partial length EphA1 (V588 to I913 residues) expressed in bacterial expression system at 1 uM by Kinomescan method
T1 sequence (whole entry): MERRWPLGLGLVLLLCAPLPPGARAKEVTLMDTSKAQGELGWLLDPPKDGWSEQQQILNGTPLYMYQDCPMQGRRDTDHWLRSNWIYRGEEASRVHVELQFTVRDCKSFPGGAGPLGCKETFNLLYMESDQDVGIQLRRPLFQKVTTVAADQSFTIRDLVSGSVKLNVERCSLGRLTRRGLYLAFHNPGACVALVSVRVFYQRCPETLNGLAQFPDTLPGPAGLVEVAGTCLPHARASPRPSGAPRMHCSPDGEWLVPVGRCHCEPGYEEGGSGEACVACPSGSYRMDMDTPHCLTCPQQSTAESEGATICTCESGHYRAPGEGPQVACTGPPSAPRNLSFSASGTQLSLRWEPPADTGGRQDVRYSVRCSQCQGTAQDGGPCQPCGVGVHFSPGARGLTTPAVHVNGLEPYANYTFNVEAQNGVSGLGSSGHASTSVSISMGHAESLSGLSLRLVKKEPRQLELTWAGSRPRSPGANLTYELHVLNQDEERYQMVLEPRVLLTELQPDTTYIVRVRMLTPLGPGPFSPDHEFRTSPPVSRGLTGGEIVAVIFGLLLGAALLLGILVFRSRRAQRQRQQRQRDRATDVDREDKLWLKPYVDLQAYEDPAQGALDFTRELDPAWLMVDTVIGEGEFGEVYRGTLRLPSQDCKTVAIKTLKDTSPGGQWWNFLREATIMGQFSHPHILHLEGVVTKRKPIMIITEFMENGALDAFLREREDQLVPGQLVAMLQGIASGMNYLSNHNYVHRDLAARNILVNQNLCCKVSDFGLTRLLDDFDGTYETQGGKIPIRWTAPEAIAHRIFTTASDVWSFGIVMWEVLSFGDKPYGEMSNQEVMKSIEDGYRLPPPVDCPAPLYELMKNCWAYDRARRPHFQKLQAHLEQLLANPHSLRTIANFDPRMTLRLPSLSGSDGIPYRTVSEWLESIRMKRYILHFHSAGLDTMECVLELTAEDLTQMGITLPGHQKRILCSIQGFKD

[2] = biological target: T2, Ephrin type-A receptor 8 (Homo sapiens) (UniProt P29322); test: Inhibition of human wild type partial length EphA8 (Q608 to C920 residues) expressed in bacterial expression system at 1 uM by Kinomescan method
T2 sequence (whole entry): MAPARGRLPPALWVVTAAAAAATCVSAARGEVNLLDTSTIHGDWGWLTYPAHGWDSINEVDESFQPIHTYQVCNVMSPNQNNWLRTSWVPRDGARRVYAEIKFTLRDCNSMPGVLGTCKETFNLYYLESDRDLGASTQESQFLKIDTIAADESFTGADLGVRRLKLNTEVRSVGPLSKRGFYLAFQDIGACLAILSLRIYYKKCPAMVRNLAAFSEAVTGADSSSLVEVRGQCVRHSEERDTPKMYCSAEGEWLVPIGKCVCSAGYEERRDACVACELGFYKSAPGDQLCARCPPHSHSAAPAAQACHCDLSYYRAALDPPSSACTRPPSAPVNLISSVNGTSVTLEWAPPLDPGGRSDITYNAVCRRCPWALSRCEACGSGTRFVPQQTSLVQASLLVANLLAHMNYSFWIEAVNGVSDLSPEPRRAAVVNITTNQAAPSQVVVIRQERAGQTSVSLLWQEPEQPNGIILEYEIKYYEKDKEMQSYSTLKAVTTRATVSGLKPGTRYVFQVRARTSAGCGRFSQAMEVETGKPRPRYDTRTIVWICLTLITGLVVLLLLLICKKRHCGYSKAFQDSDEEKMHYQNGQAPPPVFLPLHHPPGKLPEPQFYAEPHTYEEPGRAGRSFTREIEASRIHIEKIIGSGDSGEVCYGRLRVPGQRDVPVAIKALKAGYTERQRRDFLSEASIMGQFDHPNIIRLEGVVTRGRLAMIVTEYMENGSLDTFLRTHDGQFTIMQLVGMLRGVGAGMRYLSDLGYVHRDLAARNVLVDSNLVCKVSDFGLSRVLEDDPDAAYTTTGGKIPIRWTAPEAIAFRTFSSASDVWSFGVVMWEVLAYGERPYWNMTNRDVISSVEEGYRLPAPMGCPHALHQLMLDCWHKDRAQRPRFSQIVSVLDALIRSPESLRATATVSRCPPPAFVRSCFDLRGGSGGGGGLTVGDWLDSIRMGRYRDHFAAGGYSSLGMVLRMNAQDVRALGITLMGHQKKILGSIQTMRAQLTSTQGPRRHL

[3] = biological target: Tyrosine-protein kinase Fyn (Homo sapiens) (UniProt P06241); test: Inhibition of human wild type partial length Fyn (T243 to L534 residues) expressed in bacterial expression system at 1 uM by Kinomescan method

Measured: inhibition

Tyrosine-protein kinase Fyn (Homo sapiens), sequence (P06241 2-537 limits assumed): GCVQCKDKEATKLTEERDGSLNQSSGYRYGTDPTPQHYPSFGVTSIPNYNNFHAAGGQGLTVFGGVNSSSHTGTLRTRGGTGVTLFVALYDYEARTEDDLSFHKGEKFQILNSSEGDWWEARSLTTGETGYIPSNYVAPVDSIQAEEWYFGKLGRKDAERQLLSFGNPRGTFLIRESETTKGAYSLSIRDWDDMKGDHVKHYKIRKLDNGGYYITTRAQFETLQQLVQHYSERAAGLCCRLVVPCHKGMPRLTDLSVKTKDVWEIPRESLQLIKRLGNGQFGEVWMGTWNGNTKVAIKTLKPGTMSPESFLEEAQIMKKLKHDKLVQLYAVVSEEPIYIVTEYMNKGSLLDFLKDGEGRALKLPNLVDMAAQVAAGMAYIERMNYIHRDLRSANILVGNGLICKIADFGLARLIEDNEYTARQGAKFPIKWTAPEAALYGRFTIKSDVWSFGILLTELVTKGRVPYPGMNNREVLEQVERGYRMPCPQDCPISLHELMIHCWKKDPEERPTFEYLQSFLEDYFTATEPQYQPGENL

COc1cc(Nc2ccnc3cc(Br)ccc23)cc(OC)c1OC
active: all assays above

COc1cc(Nc2ccnc3cc(I)ccc23)cc(OC)c1OC
active: all assays above

COc1cc(Nc2ccnc3cc(Cl)ccc23)cc(OC)c1OC
active: all assays above

COc1cc(Nc2ccnc3cc(C(F)(F)F)ccc23)cc(OC)c1OC
active: all assays above

COc1cc(Nc2ccnc3cc(C#N)ccc23)cc(OC)c1OC
active: all assays above

From ChEMBL document CHEMBL4665659, “Utilizing comprehensive and mini-kinome panels to optimize the selectivity of quinoline inhibitors for cyclin G associated kinase (GAK)” (Bioorg Med Chem Lett, 2019)
